What was measured:
HL-60(TB) [1] = assay: Growth inhibition of human HL-60(TB) cells incubated for 48 hrs by sulforhodamine B assay; type: functional, cell-based; settings: HL-60, 48 h
NCI-H23 = assay: Growth inhibition of human NCI-H23 cells incubated for 48 hrs by sulforhodamine B assay; type: functional, cell-based; settings: NCI-H23, 48 h
SF-539 [2] = assay: Growth inhibition of human SF539 cells incubated for 48 hrs by sulforhodamine B assay; type: functional, cell-based; settings: SF-539, 48 h
SNB-75 [3] = assay: Growth inhibition of human SNB75 cells incubated for 48 hrs by sulforhodamine B assay; type: functional, cell-based; settings: SNB-75, 48 h
MCF7 [4] = assay: Growth inhibition of human MCF7 cells incubated for 48 hrs by sulforhodamine B assay; type: functional, cell-based; settings: MCF7, 48 h
Hs-578T [5] = assay: Growth inhibition of human Hs578T cells incubated for 48 hrs by sulforhodamine B assay; type: functional, cell-based
HT-29 = assay: Growth inhibition of human HT-29 cells assessed as cell growth at 0.01 uM incubated for 48 hrs by sulforhodamine B assay relative to control; type: functional; settings: HT-29, 48 h, read-out: Activity
SNB-19 = assay: Growth inhibition of human SNB19 cells assessed as cell growth at 0.01 uM incubated for 48 hrs by sulforhodamine B assay relative to control; type: functional; settings: SNB-19, 48 h, read-out: Activity
SK-MEL-2 = assay: Growth inhibition of human SK-MEL-2 cells assessed as cell growth at 0.01 uM incubated for 48 hrs by sulforhodamine B assay relative to control; type: functional; settings: SK-MEL-2, 48 h, read-out: Activity
UACC-257 = assay: Growth inhibition of human UACC257 cells assessed as cell growth at 0.01 uM incubated for 48 hrs by sulforhodamine B assay relative to control; type: functional; settings: UACC-257, 48 h, read-out: Activity
IGROV-1 = assay: Growth inhibition of human IGROV1 cells assessed as cell growth at 0.01 uM incubated for 48 hrs by sulforhodamine B assay relative to control; type: functional; settings: IGROV-1, 48 h, read-out: Activity
SK-OV-3 = assay: Growth inhibition of human SKOV3 cells assessed as cell growth at 0.01 uM incubated for 48 hrs by sulforhodamine B assay relative to control; type: functional; settings: SK-OV-3, 48 h, read-out: Activity
RXF 393 = assay: Growth inhibition of human RXF393 cells assessed as cell growth at 0.01 uM incubated for 48 hrs by sulforhodamine B assay relative to control; type: functional; settings: RXF 393, 48 h, read-out: Activity
MCF7 [6] = assay: Growth inhibition of human MCF7 cells assessed as cell growth at 0.01 uM incubated for 48 hrs by sulforhodamine B assay relative to control; type: functional; settings: MCF7, 48 h, read-out: Activity
SR = assay: Growth inhibition of human SR cells assessed as cell growth at 0.1 uM incubated for 48 hrs by sulforhodamine B assay relative to control; type: functional; settings: read-out: Activity
NCI-H322M [7] = assay: Growth inhibition of human NCI-H322M cells assessed as cell growth at 0.1 uM incubated for 48 hrs by sulforhodamine B assay relative to control; type: functional; settings: read-out: Activity
OVCAR-3 = assay: Growth inhibition of human OVCAR3 cells assessed as cell growth at 0.1 uM incubated for 48 hrs by sulforhodamine B assay relative to control; type: functional; settings: OVCAR-3, 48 h, read-out: Activity
SN12C [8] = assay: Growth inhibition of human SN12C cells assessed as cell growth at 0.1 uM incubated for 48 hrs by sulforhodamine B assay relative to control; type: functional; settings: read-out: Activity
HL-60(TB) [9] = assay: Growth inhibition of human HL-60(TB) cells assessed as cell growth at 1 uM incubated for 48 hrs by sulforhodamine B assay relative to control; type: functional; settings: HL-60, 48 h, read-out: Activity
NCI-H322M [10] = assay: Growth inhibition of human NCI-H322M cells assessed as cell growth at 1 uM incubated for 48 hrs by sulforhodamine B assay relative to control; type: functional; settings: read-out: Activity
HCT-116 = assay: Growth inhibition of human HCT116 cells assessed as cell growth at 1 uM incubated for 48 hrs by sulforhodamine B assay relative to control; type: functional; settings: HCT-116, 48 h, read-out: Activity
SF-295 = assay: Growth inhibition of human SF295 cells assessed as cell growth at 1 uM incubated for 48 hrs by sulforhodamine B assay relative to control; type: functional; settings: SF-295, 48 h, read-out: Activity
CAKI-1 = assay: Growth inhibition of human Caki1 cells assessed as cell growth at 1 uM incubated for 48 hrs by sulforhodamine B assay relative to control; type: functional; settings: CAKI-1, 48 h, read-out: Activity
SN12C [11] = assay: Growth inhibition of human SN12C cells assessed as cell growth at 1 uM incubated for 48 hrs by sulforhodamine B assay relative to control; type: functional; settings: read-out: Activity
Hs-578T [12] = assay: Growth inhibition of human Hs578T cells assessed as cell growth at 1 uM incubated for 48 hrs by sulforhodamine B assay relative to control; type: functional; settings: read-out: Activity
NCI-H226 = assay: Growth inhibition of human NCI-H226 cells assessed as cell growth at 100 uM incubated for 48 hrs by sulforhodamine B assay relative to control; type: functional; settings: NCI-H226, 48 h, read-out: Activity
HCT-15 = assay: Growth inhibition of human HCT15 cells assessed as cell growth at 100 uM incubated for 48 hrs by sulforhodamine B assay relative to control; type: functional; settings: HCT-15, 48 h, read-out: Activity
SF-539 [13] = assay: Growth inhibition of human SF539 cells assessed as cell growth at 100 uM incubated for 48 hrs by sulforhodamine B assay relative to control; type: functional; settings: SF-539, 48 h, read-out: Activity
SNB-75 [14] = assay: Growth inhibition of human SNB75 cells assessed as cell growth at 100 uM incubated for 48 hrs by sulforhodamine B assay relative to control; type: functional; settings: SNB-75, 48 h, read-out: Activity
OVCAR-4 = assay: Growth inhibition of human OVCAR4 cells assessed as cell growth at 100 uM incubated for 48 hrs by sulforhodamine B assay relative to control; type: functional; settings: OVCAR-4, 48 h, read-out: Activity
[15] = read-out: LC50 (the source's name)
[16] = read-out: pLC50 (the source's name) (converted)

O=C(Nc1cccc(-n2cc(-c3ccncc3)c(-c3cc(O)cc(Cl)c3)n2)c1)c1ccc(N2CCOCC2)c(C(F)(F)F)c1
GI50 (HL-60(TB) [1]; read-out: GI50): 0.81 µM
LC50 (HL-60(TB) [1]; read-out: LC50): > 100 µM
TGI (HL-60(TB) [1]; read-out: TGI): 30.4 µM
GI50 (HL-60(TB) [1]; read-out: pGI50 (converted)): 0.813 µM
LC50 (HL-60(TB) [1]; read-out: pLC50 (converted)): > 100 µM
TGI (HL-60(TB) [1]; read-out: pTGI (converted)): 3.02 µM
GI50 (NCI-H23; read-out: GI50): 3.56 µM
LC50 (NCI-H23; read-out: LC50): > 100 µM
TGI (NCI-H23; read-out: TGI): 38.8 µM
GI50 (NCI-H23; read-out: pGI50 (converted)): 3.63 µM
LC50 (NCI-H23; read-out: pLC50 (converted)): > 100 µM
TGI (NCI-H23; read-out: pTGI (converted)): 38.9 µM
GI50 (SF-539 [2]; read-out: GI50): 1.44 µM
CC50 (SF-539 [2]; [15]): > 100 µM
TGI (SF-539 [2]; read-out: TGI): 44.7 µM
GI50 (SF-539 [2]; read-out: pGI50 (converted)): 1.45 µM
CC50 (SF-539 [2]; [16]): > 100 µM
TGI (SF-539 [2]; read-out: pTGI (converted)): 4.47 µM
GI50 (SNB-75 [3]; read-out: GI50): 0.772 µM
CC50 (SNB-75 [3]; [15]): > 100 µM
TGI (SNB-75 [3]; read-out: TGI): > 100 µM
GI50 (SNB-75 [3]; read-out: pGI50 (converted)): 0.724 µM
CC50 (SNB-75 [3]; [16]): > 100 µM
TGI (SNB-75 [3]; read-out: pTGI (converted)): > 100 µM
GI50 (MCF7 [4]; read-out: GI50): 4.18 µM
LC50 (MCF7 [4]; read-out: LC50): > 100 µM
TGI (MCF7 [4]; read-out: TGI): > 100 µM
GI50 (MCF7 [4]; read-out: pGI50 (converted)): 4.17 µM
LC50 (MCF7 [4]; read-out: pLC50 (converted)): > 100 µM
TGI (MCF7 [4]; read-out: pTGI (converted)): > 100 µM
GI50 (Hs-578T [5]; read-out: GI50): 2.94 µM
CC50 (Hs-578T [5]; [15]): > 100 µM
TGI (Hs-578T [5]; read-out: TGI): > 100 µM
GI50 (Hs-578T [5]; read-out: pGI50 (converted)): 2.95 µM
CC50 (Hs-578T [5]; [16]): > 100 µM
TGI (Hs-578T [5]; read-out: pTGI (converted)): > 100 µM
growth at 0.01 µM (HT-29): 93%
growth at 0.01 µM (SNB-19): 101%
growth at 0.01 µM (SK-MEL-2): 54%
growth at 0.01 µM (UACC-257): 91%
growth at 0.01 µM (IGROV-1): 93%
growth at 0.01 µM (SK-OV-3): 102%
growth at 0.01 µM (RXF 393): 91%
growth at 0.01 µM (MCF7 [6]): 91%
growth at 0.1 µM (SR): 98%
growth at 0.1 µM (NCI-H322M [7]): 97%
growth at 0.1 µM (OVCAR-3): 113%
growth at 0.1 µM (SN12C [8]): 98%
growth at 1 µM (HL-60(TB) [9]): 44%
growth at 1 µM (NCI-H322M [10]): 57%
growth at 1 µM (HCT-116): 58%
growth at 1 µM (SF-295): 39%
growth at 1 µM (CAKI-1): 53%
growth at 1 µM (SN12C [11]): 58%
growth at 1 µM (Hs-578T [12]): 59%
growth at 100 µM (NCI-H226): 27%
growth at 100 µM (HCT-15): -54%
growth at 100 µM (SF-539 [13]): -50%
growth at 100 µM (SNB-75 [14]): 1%
growth at 100 µM (OVCAR-4): 57%

Source: ChEMBL document CHEMBL4308841, “Synthesis, in vitro antiproliferative activity, and kinase inhibitory effects of pyrazole-containing diarylureas and diarylamides” (Eur J Med Chem, 2018)
